Test results taken from patent publication US20230203482A1, “Methods of Rescuing Stop Codons via Genetic Reassignment with ACE-tRNA” (THE WISTAR INSTITUTE OF ANATOMY AND BIOLOGY, priority 2017, published 2023).

B1: Glychr19.trna2: top performing glycine ACE-tRNA UGA suppressor, SEQ ID NO: 53 (nucleic acid)
chain: GCGTTGGTGGTATAGTGGTTAGCATAGCTGCCTTCAAAGCAGTTGACCCGGGTTCGATTCCCGGCCAACGCA
modifications: chemistry not fully specified

Tested on: histidinol dehydrogenase (HDH) N94-TGA
Experiment: Mass spectrometry of suppressed histidinol dehydrogenase (cognate amino acid encoding)
Type: cell-based, E. coli
Settings: MS/MS of tryptic fragment
Source text: For expression in mammalian cells, the cDNA for the coding region and 200 base-pair of the 3′ untranslated region (UTR) of human CFTR was ligated into pcDNA3.1(+) (Promega, USA) using the KpnI and XbaI restriction enzymes. The G542tga and W1282tga mutations were introduced using QuickChange XL II (Stratagene, USA). For expression in Xenopus laevis oocytes, the cDNA for the coding region and 140 base-pair of the 5′ and 244 base-pair 3′ UTR of human CFTR was ligated into pGEM-HE (Promega, USA). Bothe the G542tga and W1282tga mutations were introduced using QuickChange XL II. The cDNA encoding the E. coli histidinol dehydrogenase was codon optimized for Mus musculus and synthesized (BioBasic Inc, Canada) with a c-terminal 8xHis-Strep-tag for protein purification from mammalian cells. The synthesized cDNA was ligated into pcDNA3.1(+) using EcoRI and XhoI restriction sites. The nonsense mutations tag, taa and tga were introduced using QuickChange XL II. […]

Molecule	mass modification of Asn at HDH N94
Trpchr17.trna39: top performing tryptophan ACE-tRNA UGA suppressor, SEQ ID NO: 48	+72 Da
B1	−57 Da
